The supplement of paper PMC10307832

Legend:
Test in all cases: relative viability (nuclei count vs DMSO), 5 days (fraction); higher = more cells survive
[1] = tested on: A-427
Method in brief: (§1)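 Lung cancer cell lines were pin-tool dosed in 1536-well plates on the day after seeding, with either a lone drug or a fixed anchor-drug dose plus five library-drug doses (not always all listed) in √10 steps. Nuclei were counted on 4× images after 5 days. Relative viability is the ratio of treated-well to vehicle-well nuclei counts, with each value a median of duplicate plates.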

[2] = tested on: ABC-1
Method in brief: as §1

[3] = tested on: EMC-BAC-2
Method in brief: as §1

[4] = tested on: HARA
Method in brief: as §1

[5] = tested on: HOP-62
Method in brief: as §1

[6] = tested on: LK-2
Method in brief: as §1

[7] = tested on: LXF-289
Method in brief: as §1

[8] = tested on: NCI-H1792
Method in brief: as §1

[9] = tested on: NCI-H1944
Method in brief: as §1

[10] = tested on: NCI-H1993
Method in brief: as §1

[11] = tested on: NCI-H2009
Method in brief: as §1

Molecule `O=c1cc(N2CCOCC2)oc2c(-c3cccc4c3sc3ccccc34)cccc12` + Nc1ncn([C@H]2C[C@H](O)[C@@H](CO)O2)c(=O)n1 [Decitabine] (partner 2 µM) has a relative viability ([1]; first compound 0.01 µM) of 0.606, a relative viability ([1]; first compound 0.03162 µM) of 0.552 and a relative viability ([1]; first compound 0.1 µM) of 0.58. It also gave a relative viability ([1]; first compound 0.3162 µM) of 0.591, a relative viability ([1]; first compound 1 µM) of 0.592 and a relative viability ([2]; first compound 0.01 µM) of 1.01. The relative viability ([2]; first compound 0.03162 µM) was 1.15, the relative viability ([2]; first compound 0.1 µM) was 1.31 and the relative viability ([2]; first compound 0.3162 µM) was 0.959. It also gave a relative viability ([2]; first compound 1 µM) of 1.09, a relative viability ([3]; first compound 0.01 µM) of 1.05 and a relative viability ([3]; first compound 0.03162 µM) of 1.02. It also gave a relative viability ([3]; first compound 0.1 µM) of 1.01, a relative viability ([3]; first compound 0.3162 µM) of 0.93 and a relative viability ([3]; first compound 1 µM) of 0.95. The relative viability ([4]; first compound 0.01 µM) was 0.536, the relative viability ([4]; first compound 0.03162 µM) was 0.466 and the relative viability ([4]; first compound 0.1 µM) was 0.617. It also gave a relative viability ([4]; first compound 0.3162 µM) of 0.481, a relative viability ([4]; first compound 1 µM) of 0.476 and a relative viability ([5]; first compound 0.01 µM) of 0.228. It also gave a relative viability ([5]; first compound 0.03162 µM) of 0.227, a relative viability ([5]; first compound 0.1 µM) of 0.236 and a relative viability ([5]; first compound 0.3162 µM) of 0.249. For the same molecule, the relative viability ([5]; first compound 1 µM) was 0.196, the relative viability ([6]; first compound 0.01 µM) was 0.355 and the relative viability ([6]; first compound 0.03162 µM) was 0.324. It also gave a relative viability ([6]; first compound 0.1 µM) of 0.338, a relative viability ([6]; first compound 0.3162 µM) of 0.278 and a relative viability ([6]; first compound 1 µM) of 0.285. For the same molecule, the relative viability ([7]; first compound 0.01 µM) was 0.457, the relative viability ([7]; first compound 0.03162 µM) was 0.386 and the relative viability ([7]; first compound 0.1 µM) was 0.391. The relative viability ([7]; first compound 0.3162 µM) was 0.371, the relative viability ([7]; first compound 1 µM) was 0.392 and the relative viability ([8]; first compound 0.01 µM) was 0.581. For the same molecule, the relative viability ([8]; first compound 0.03162 µM) was 0.531, the relative viability ([8]; first compound 0.3162 µM) was 0.556 and the relative viability ([8]; first compound 1 µM) was 0.561. The relative viability ([9]; first compound 0.01 µM) was 0.488, the relative viability ([9]; first compound 0.03162 µM) was 0.448 and the relative viability ([9]; first compound 0.1 µM) was 0.443. It also gave a relative viability ([9]; first compound 0.3162 µM) of 0.408, a relative viability ([9]; first compound 1 µM) of 0.481 and a relative viability ([10]; first compound 0.01 µM) of 0.731. The relative viability ([10]; first compound 0.03162 µM) was 0.639, the relative viability ([10]; first compound 0.1 µM) was 0.569 and the relative viability ([10]; first compound 0.3162 µM) was 0.575. The relative viability ([10]; first compound 1 µM) was 0.585, the relative viability ([11]; first compound 0.01 µM) was 0.368 and the relative viability ([11]; first compound 0.03162 µM) was 0.412.
